Assay results as given in patent US20070179716A1, “Crystal structure of cytochrome P450 3A4 and uses thereof” (ASTEX THERAPEUTICS LIMITED, priority 2001, published 2007).

Tests used:
[1] = target: human cytochrome P450 3A4 (Homo sapiens, UniProt P08684)
Protocol: 3A4 protein produced essentially as described in “Protein purification (3)” above was used to obtain co-crystals with metyrapone, apart from replacing the CM-Sepharose column with a CM-fast flow column. Co-crystals of metyrapone were generated using crystallisation conditions of 0.1M Hepes pH 7.5, 0.25M sodium chloride, 5% MPD, 50 mM Calcium chloride, 10% (w/v) PEG 4000, and soaking the crystals in 0.5 mM metyrapone for 4 hours. […] The Fe—N bond distance was loosely restrained to […] during the refinement.
3A4 protein produced essentially as described in “Protein purification (3)” above was used to obtain co-crystals with progesterone, apart from replacing the CM-Sepharose column with a CM-fast flow column. Co-crystals of progesterone were obtained by co-crystallisation using 0.5 mM progesterone in 2.5% ethanol and crystallisation conditions of 0.1M HEPES pH 7.5, 0.25M potassium chloride, 12% (w/v) PEG 4000, 5% (w/v) MPD, 25 mM calcium chloride.
Molecular replacement was performed using the program AMORE and using the CYP3A4 crystal structure described in Table 1 as the search model. […] This molecular replacement model was then used as a starting model for subsequent refinement of other datasets from crystal form 2.
Apo (compound-free) crystals of 3A4 were obtained by setting up a 1:1 ratio of protein (at 36.5 mg/ml in buffer, 10 mM KPi, pH7.2, 20% glycerol, 1 mM EDTA, 2 mM DTT, 0.5M KCl) against 0.1 M Hepes-NaOH pH 7.5, 1.44 M sodium citrate.
Apo (compound-free) crystals of 3A4 were generated by setting up a 1:1 ratio of protein (at 36.5 mg/ml in buffer, 10 mM KPi, pH7.2, 20% glycerol, 1 mM EDTA, 2 mM DTT, 0.5M KCl) against 0.1M Hepes-NaOH pH 7.5, 1.424M Sodium citrate. The resulting crystals were soaked for 18 hours in a mother liquor containing 5 mM fluconazole, and then frozen using 0.1M Hepes-NaOH pH7.5, 1.4M sodium citrate, 15% glycerol.

[2] = target: T1, CYP3A4 (Homo sapiens, UniProt P08684); test: UV/visible spectroscopy of inhibitor binding in solution; settings: UV/visible spectroscopic data (not shown)
T1 construct: made in house; host or cells: E. coli XL1 Blue
T1 sequence (P08684 with tags, fused parts or gaps): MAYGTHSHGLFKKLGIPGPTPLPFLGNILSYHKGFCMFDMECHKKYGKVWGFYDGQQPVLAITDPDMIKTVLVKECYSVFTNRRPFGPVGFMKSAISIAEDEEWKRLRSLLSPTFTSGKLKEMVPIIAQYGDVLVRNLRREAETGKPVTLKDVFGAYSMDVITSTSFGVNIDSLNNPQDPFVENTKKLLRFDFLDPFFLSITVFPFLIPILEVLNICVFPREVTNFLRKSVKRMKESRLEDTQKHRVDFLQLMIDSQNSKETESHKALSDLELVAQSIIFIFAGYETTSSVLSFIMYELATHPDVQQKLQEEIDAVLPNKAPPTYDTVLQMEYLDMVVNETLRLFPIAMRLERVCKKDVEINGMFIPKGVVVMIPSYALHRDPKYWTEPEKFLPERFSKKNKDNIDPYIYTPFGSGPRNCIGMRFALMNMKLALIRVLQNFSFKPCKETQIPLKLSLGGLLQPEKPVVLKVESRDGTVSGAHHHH

human cytochrome P450 3A4, sequence (P08684 with tags, fused parts or gaps): as above

| Structure (SMILES) | distance of the compound (nearest atom) from the haem iron [1] | separation of the two bound copies of the compound [1] | binding position of the compound in the 3A4 crystal structure [1] | volume occupied by the molecule in the active site [1] [Å^3] | binding mode in solution [2] |
| --- | --- | --- | --- | --- | --- |
| OC(Cn1cncn1)(Cn1cncn1)c1ccc(F)cc1F [fluconazole] | approximately 14 Å | approximately 7 Å |  |  |  |
| CC(C)(C(=O)c1cccnc1)c1cccnc1 [metyrapone] |  |  | bound directly to the haem iron via a pyridine nitrogen | 50 | liganded to the haem |
| CC(=O)[C@H]1CC[C@H]2[C@@H]3CCC4=CC(=O)CC[C@]4(C)[C@H]3CC[C@]12C [progesterone] |  |  | bound at a peripheral site very close to the Phe-cluster |  |  |
